As usually defined, the AUC(0-t) is exposure summed from dosing to a finite time, without extrapolation to infinity. As usually defined, the Cmax is the maximum level reached in the sampled fluid or tissue. Usually Tmax stands for the time at which the peak concentration occurs.

Where two headings read alike, the source gives them in different places. [ ]: non-standard residue; d: D form. Nva = CCC[C@H](N)C(=O)O

Consider five molecules from patent US20230021946A1, “MONOMERIC FUSION PEPTIDES AND METHOD OF USE THEREOF” (priority 2021, published 2023).

Data set [1] is described as follows: Pharmacokinetic profile in mice after single subcutaneous injection. It is filed as in vivo. The conditions noted are these: 10 mg/kg; for AUC(0-t) / Cmax / Tmax: mouse, sc, plasma. On the procedure:
GLP1v peptide (with Gly8 substitution) and GLP1v fusion peptides were administered once by subcutaneous injection (concentration=10 mg/kg). Blood was collected into K2EDTA tubes containing a cocktails of protease inhibitors (DPP-4 and Aprotinin). The Bioanalytical Method BAM.0634.01 was used for the quantitation of GLP1v and GLP1v fusion peptides in K2EDTA mouse plasma. It is based on protein precipitation extraction followed by LC-MS/MS instrumental analysis and covers a measurement range from 1.00 to 1000 ng/mL. Samples were analyzed on a Waters Acquity liquid chromatograph interfaced with a Thermo Scientific TSQ Vantage triple quadrupole mass spectrometer with ESI ionization.

A short description of data set [2]: Stability in human plasma at 37° C. It counts as in vitro ADME. To be noted: for % of Time 0 / remaining at 1 h, 1000 ng/ml / remaining at 8 h, 1000 ng/ml / remaining at 22 h, 1000 ng/ml: 1000 ng/ml; for % of Time 0: 0.00 hrs, N=3; for remaining at 1 h, 1000 ng/ml / remaining at 8 h, 1000 ng/ml / remaining at 22 h, 1000 ng/ml: N=3, read-out: % of Time 0; for resistance to proteolytic degradation compared with GLP1 peptide: 8 and 22 hours of incubation. On the procedure: The stability and resistance to proteolytic degradation of a number of ALY688-GLP1v fusion peptides were assessed following incubation in human plasma at 37° C.
HPLC (Supelco Discovery BIO Wide Pore C5-3 (2.1×50 mm) with a slow gradient to separate possible degradation products) was used to quantify each peptide. High resolution mass spectrometry (Thermo Q Exactive) Plus was used to collect full scan and MS2 spectra to characterize any possible degradants. The data were evaluated both manually and using Proteome Discoverer data mining software.
In the above tables, Temperature=37° C., Concentration=1000 ng/ml, and N=3/time point.

Data set [3] is described as follows: Oral glucose tolerance test after single intravenous injection in mice. It is filed as in vivo. To be noted: mice fasted 4 hours, intravenous injection 10 minutes before oral glucose load 1 g/kg. As to the method:
The oral glucose load was 1 g glucose/kg body weight. Blood glucose levels were measured with a glucometer at time −30 minutes, 0 (right before the oral glucose load), 15, 30, 60 and 90 minutes after the oral glucose load. Mice were euthanized after the time 90 minutes.

In data set [4] the test system is P38MAPK (T180/Y182) phosphorylation. To be noted: L6 murine skeletal muscle cells, ALY688 alone, previously shown; cited from earlier work.

As for `CCC[C@H](NC(=O)[C@@H]1CCCN1C(=O)[C@@H](NC(=O)[C@H](N)CC(N)=O)[C@@H](C)CC)C(=O)N[C@@H](CC(C)C)C(=O)N[C@@H](Cc1ccc(O)cc1)C(=O)N[C@H](CO)C(=O)N[C@@H](Cc1ccccc1)C(=O)N[C@@H](C)C(=O)N[C@H](CO)C(=O)NCC(=O)NCC(=O)NCC(=O)NCCCC[C@H](NC(=O)[C@H](C)NC(=O)[C@H](C)NC(=O)[C@H](CCC(N)=O)NC(=O)CNC(=O)[C@H](CCC(=O)O)NC(=O)[C@H](CC(C)C)NC(=O)[C@H](Cc1ccc(O)cc1)NC(=O)[C@H](CO)NC(=O)[C@H](CO)NC(=O)[C@@H](NC(=O)[C@H](CC(=O)O)NC(=O)[C@H](CO)NC(=O)[C@@H](NC(=O)[C@H](Cc1ccccc1)NC(=O)[C@@H](NC(=O)CNC(=O)[C@H](CCC(=O)O)NC(=O)CNC(=O)[C@@H](N)Cc1c[nH]cn1)[C@@H](C)O)[C@@H](C)O)C(C)C)C(=O)N[C@@H](CCC(=O)O)C(=O)N[C@@H](Cc1ccccc1)C(=O)N[C@H](C(=O)N[C@@H](C)C(=O)N[C@@H](Cc1c[nH]c2ccccc12)C(=O)N[C@@H](CC(C)C)C(=O)N[C@H](C(=O)N[C@@H](CCCCN)C(=O)NCC(=O)N[C@@H](CCCNC(=N)N)C(N)=O)C(C)C)[C@@H](C)CC` [ALY688-GLP1v(Lys26)], in data set [1], the “change in AUC / total exposure compared with GLP1v peptide” value (“change in AUC / total exposure” below) is reported as “two-fold increase”, the AUC(0-t) is 1020 ng·h/mL, the concentration peaked (Cmax) at 1610 ng/mL and the Tmax is 10 min. In data set [2], the “% of Time 0” value was determined as 100%; the remaining at 1 h, 1000 ng/ml worked out at 99%; the remaining at 8 h, 1000 ng/ml is 74%; the remaining at 22 h, 1000 ng/ml is 40%. In data set [2], the “resistance to proteolytic degradation compared with GLP1 peptide” value was “better resistance to proteolytic degradation”. In data set [3], the “blood glucose levels after glucose load” value was “greater glucose lowering action”.

In the case of `CCC[C@H](NC(=O)[C@@H]1CCCN1C(=O)[C@@H](NC(=O)[C@H](N)CC(N)=O)[C@@H](C)CC)C(=O)N[C@@H](CC(C)C)C(=O)N[C@@H](Cc1ccc(O)cc1)C(=O)N[C@H](CO)C(=O)N[C@@H](Cc1ccccc1)C(=O)N[C@@H](C)C(=O)N[C@H](CO)C(=O)NCC(=O)NCC(=O)NCC(=O)NCCCC[C@H](NC(=O)[C@H](C)NC(=O)[C@H](C)NC(=O)[C@H](CCC(N)=O)NC(=O)CNC(=O)[C@H](CCC(=O)O)NC(=O)[C@H](CC(C)C)NC(=O)[C@H](Cc1ccc(O)cc1)NC(=O)[C@H](CO)NC(=O)[C@H](CO)NC(=O)[C@@H](NC(=O)[C@H](CC(=O)O)NC(=O)[C@H](CO)NC(=O)[C@@H](NC(=O)[C@H](Cc1ccccc1)NC(=O)[C@@H](NC(=O)CNC(=O)[C@H](CCC(=O)O)NC(=O)CNC(=O)[C@@H](N)Cc1c[nH]cn1)[C@@H](C)O)[C@@H](C)O)C(C)C)C(=O)N[C@@H](CCC(=O)O)C(=O)N[C@@H](Cc1ccccc1)C(=O)N[C@H](C(=O)N[C@@H](C)C(=O)N[C@@H](Cc1c[nH]c2ccccc12)C(=O)N[C@@H](CC(C)C)C(=O)N[C@H](C(=O)N[C@@H](CCCCNC(=O)CNC(=O)CNC(=O)CNC(=O)[C@@H](CO)NC(=O)[C@H](C)NC(=O)[C@H](Cc1ccccc1)NC(=O)[C@@H](CO)NC(=O)[C@H](Cc1ccc(O)cc1)NC(=O)[C@H](CC(C)C)NC(=O)[C@H](CCC)NC(=O)[C@@H]1CCCN1C(=O)[C@@H](NC(=O)[C@H](N)CC(N)=O)[C@@H](C)CC)C(=O)NCC(=O)N[C@@H](CCCNC(=N)N)C(N)=O)C(C)C)[C@@H](C)CC` [ALY688-GLP1v(Lys26,34)], in data set [1], the “change in AUC / total exposure” value is “decrease in total exposure”, the “change in Tmax compared with GLP1v peptide” value is recorded as “further increase in the Tmax”, the AUC(0-t) is 358 ng·h/mL and the peak level (Cmax) was 372 ng/mL. Besides, the Tmax in data set [1] was 15 min.

With `CCC[C@H](NC(=O)[C@@H]1CCCN1C(=O)[C@@H](NC(=O)[C@H](N)CC(N)=O)[C@@H](C)CC)C(=O)N[C@@H](CC(C)C)C(=O)N[C@@H](Cc1ccc(O)cc1)C(=O)N[C@H](CO)C(=O)N[C@@H](Cc1ccccc1)C(=O)N[C@@H](C)C(=O)N[C@H](CO)C(=O)NCC(=O)NCC(=O)NCC(=O)NCCCC[C@H](NC(=O)[C@@H](NC(=O)[C@H](CC(C)C)NC(=O)[C@H](Cc1c[nH]c2ccccc12)NC(=O)[C@H](C)NC(=O)[C@@H](NC(=O)[C@H](Cc1ccccc1)NC(=O)[C@H](CCC(=O)O)NC(=O)[C@H](CCCCN)NC(=O)[C@H](C)NC(=O)[C@H](C)NC(=O)[C@H](CCC(N)=O)NC(=O)CNC(=O)[C@H](CCC(=O)O)NC(=O)[C@H](CC(C)C)NC(=O)[C@H](Cc1ccc(O)cc1)NC(=O)[C@H](CO)NC(=O)[C@H](CO)NC(=O)[C@@H](NC(=O)[C@H](CC(=O)O)NC(=O)[C@H](CO)NC(=O)[C@@H](NC(=O)[C@H](Cc1ccccc1)NC(=O)[C@@H](NC(=O)CNC(=O)[C@H](CCC(=O)O)NC(=O)CNC(=O)[C@@H](N)Cc1c[nH]cn1)[C@@H](C)O)[C@@H](C)O)C(C)C)[C@@H](C)CC)C(C)C)C(=O)NCC(=O)N[C@@H](CCCNC(=N)N)C(N)=O` [ALY688-GLP1v(Lys34)], in data set [1], the “change in AUC / total exposure” value is given as “decrease in total exposure”, the “change in Tmax compared with GLP1v peptide” value was “further increase in the Tmax”, the area under the curve AUC(0-t) was 177 ng·h/mL and the highest level (Cmax) was 267 ng/mL. For the same molecule, in data set [1], the time of peak concentration (Tmax) was 15 min. In addition, in data set [2], the “% of Time 0” value was 100%; the remaining at 1 h, 1000 ng/ml is 95%; the remaining at 8 h, 1000 ng/ml stood at 74%; the remaining at 22 h, 1000 ng/ml was 49%. Moreover, in data set [2], the “resistance to proteolytic degradation compared with GLP1 peptide” value is recorded as “better resistance to proteolytic degradation”. Further, the “blood glucose levels after glucose load” value in data set [3] was “greater glucose lowering action”.

Consider `CC[C@H](C)[C@H](NC(=O)[C@H](Cc1ccccc1)NC(=O)[C@H](CCC(=O)O)NC(=O)[C@H](CCCCN)NC(=O)[C@H](C)NC(=O)[C@H](C)NC(=O)[C@H](CCC(N)=O)NC(=O)CNC(=O)[C@H](CCC(=O)O)NC(=O)[C@H](CC(C)C)NC(=O)[C@H](Cc1ccc(O)cc1)NC(=O)[C@H](CO)NC(=O)[C@H](CO)NC(=O)[C@@H](NC(=O)[C@H](CC(=O)O)NC(=O)[C@H](CO)NC(=O)[C@@H](NC(=O)[C@H](Cc1ccccc1)NC(=O)[C@@H](NC(=O)CNC(=O)[C@H](CCC(=O)O)NC(=O)CNC(=O)[C@@H](N)Cc1cnc[nH]1)[C@@H](C)O)[C@@H](C)O)C(C)C)C(=O)N[C@@H](C)C(=O)N[C@@H](Cc1c[nH]c2ccccc12)C(=O)N[C@@H](CC(C)C)C(=O)N[C@H](C(=O)N[C@@H](CCCCN)C(=O)NCC(=O)N[C@@H](CCCNC(=N)N)C(N)=O)C(C)C` [GLP1v with Gly8 substitution, reference compound], for which, in data set [1], the AUC(0-t) was 525 ng·h/mL, the peak level (Cmax) was 781 ng/mL and the time to peak (Tmax) is 5 min. In addition, the “% of Time 0” value in data set [2] is given as 100%. For the same molecule, in data set [2] (human plasma (K2EDTA)), the remaining at 1 h, 1000 ng/ml worked out at 85%; the remaining at 8 h, 1000 ng/ml came to 41%; the remaining at 22 h, 1000 ng/ml turned out to be 24%. Moreover, the “blood glucose levels after glucose load” value in data set [3] is “expected glucose-lowering activity”.

As for “H-DAsn-Ile-Pro-Nva-Leu-Tyr-DSer-Phe-Ala-DSer-NH2 (H-[dN]IP[Nva]LY[dS]FA[dS]-NH2; SMILES CCC[C@H](NC(=O)[C@@H]1CCCN1C(=O)[C@@H](NC(=O)[C@H](N)CC(N)=O)[C@@H](C)CC)C(=O)N[C@@H](CC(C)C)C(=O)N[C@@H](Cc1ccc(O)cc1)C(=O)N[C@H](CO)C(=O)N[C@@H](Cc1ccccc1)C(=O)N[C@@H](C)C(=O)N[C@H](CO)C(N)=O) [ALY688, 10 amino acid chemically synthesized adiponectin receptor agonist peptide, reference compound]”, the “P38MAPK (T180/Y182) phosphorylation” value in data set [4] is listed as “increased”. Also, the “blood glucose levels after glucose load” value in data set [3] is “no glucose effect”.
